We go through 6 compounds from US11377427B2, “Triazoles for regulating intracellular calcium homeostasis” (UNIVERSIDAD DEL PAIS VASCO, priority 2016, dated 2022).

The test system of series [1] is left ventricle of a rat heart. The note with it: concentrations of 10^-6 M; in vitro; without affecting left ventricular heart rate or pressure; cited from earlier work.
Series [2] concerns mdx mice. Nature of the series: Grip strength of dystrophic mdx mice. The following applies: 0.25 mg/mL in drinking water, one-month old mdx mice. Type of series: in vivo, mouse. As to the method: One-month old male dystrophic mdx mice supplied by Jackson Laboratory (https://www.jax.org/strain/001801) were used. The biological assays for measuring the effect of the Ahulken (AHK) compounds on muscle function were performed with one-month old mice, whereas the in vivo assays for determining the effect on the heart and CNS were performed with four-month old mice. The one-month old mice were treated with compound AHK1 or compound AHK2 for 5 weeks, where said compounds were administered in drinking water at a concentration of 0.25 mg/mL. The muscle strength of the front paws was measured every week using a grip strength meter and the obtained value was normalized by the body weight of the animal. To that end, the indications described in the TREAT-NMD Neuromuscular Network protocol (http://www.treat-nmd.eu/downloads/file/sops/dmd/MDX/DMD_M.2.2.001.pdf) were followed.

In series [3] the test system is mdx mice. Nature of the series: Muscle degeneration/regeneration: percentage of central nuclei in muscle cryosections of mdx mice. Type of series: in vivo, mouse. The following applies: 5-week treatment of mdx mice; 0.25 mg/mL in drinking water; FIG. 5. As to the method:
After concluding the 5-week treatment, the tibialis anterior muscle was obtained and processed for subsequent biochemical and immunohistological analysis to determine the degree of muscle damage. Cell-death derived regeneration was determined in muscle cryosections by means of quantifying the percentage of central nuclei using standard immunofluorescence techniques for detecting collagen IV and cell nuclei.

Series [4] deals with human control myotubes LHCN-M2. Nature of the series: In vitro toxicity in human myotubes, CytoTox 96 colorimetric assay. Type of series: cell-based. The following applies: 24 hours of incubation. The protocol:
These assays were carried out in human control myotubes LHCN-M2 after 14 days in differentiation medium. To determine the toxicity of the different analyzed compounds, particularly AHK1 and AHK2 according to the invention, these compounds were added to the culture medium for 24 hours at 37° C. at different concentrations (0-2 mM). For comparison purposes, the same assay was performed by adding reference compound S-107. Cell viability was determined by means of Cytotox 96 (Promega) colorimetric assay following instructions in the manual.

The target in series [5] is T1, RyR1-calstabin1 interaction (Homo sapiens, UniProt P21817+P62942).
T1 construct: endogenous in cells; host or cells: LHCN-M2 human myotubes (differentiated for 9 days)
Nature of the series: RyR1-calstabin1 interaction by in situ PLA in human myotubes under SIN1 nitro-oxidative stress. Type of series: cell-based. The note with it: pre-treated 12 hours at 150 nM; SIN1 5 mM 30 minutes; FIG. 3. The protocol: This assay was carried out in human control myotubes LHCN-M2 after 9 days in differentiation medium. Said myotubes were pre-treated for 12 hours with compounds AHK1 and AHK2 at a concentration of 150 nM. After treatment, the myotubes were subjected to peroxynitrite-induced nitro-oxidative stress by means of the addition of SIN1 (5 mM) for 30 minutes. RyR1-calstabin colocalization was analyzed by means of the in situ proximity ligation technique (in situ PLA) for which Sigma's Duolink II Network Fluorescence Kit and RyR1- and calstabin 1-specific antibodies were used. This technique allows detecting the exact location of two antigens located at a distance less than 40 nm from one another. To determine RyR1-calstabin-1 colocalization, 3 photographs were quantified for each condition with about 9 myotubes per field, using Image J computer software (http://rsb.info.nih.gov/ij/download.html). The colocalization area in each image was normalized to the myosin expression area, which was determined by means of immunofluorescence with a fluorescein-conjugated specific antibody.

For series [6], the system named is mdx mice. Nature of the series: Isoproterenol-induced cardiomyopathy in mdx mice (Evans Blue uptake). Type of series: in vivo, mouse. The following applies: four-month old mdx mice; 5-week treatment, 0.25 mg/mL in drinking water; FIG. 8. The protocol:
The myocardium of the four-month old dystrophic mdx mice is highly susceptible to mechanical stress and the compound isoproterenol induces cardiomyopathy in these mice (FIG. 8). Cardiomyocyte sarcolemma integrity was determined by means of measuring the uptake of Evans Blue dye that accumulates in cardiomyocytes with membrane damage. Evans Blue was administered 24 hours before extracting the hearts at a concentration of 10 mg/ml by means of intraperitoneal injection (10 μl/g of body weight). Damage with isoproterenol was carried out by means of 3 sequential intraperitoneal injections of beta-isoproterenol (350 ng/g of body weight) 18, 20 and 22 hours after administering Evans Blue in order to determine the degree of muscle damage. Cell-death derived regeneration was determined in muscle cryosections by means of quantifying the percentage of central nuclei, using standard immunofluorescence techniques for detecting collagen IV and cell nuclei.

Series [7] has as its system fibers isolated from mouse flexor digitorum brevis muscle (dystrophic MDX fibers). Nature of the series: Baseline intracellular calcium levels in mouse muscle fibers (Fura 2-AM). The class given is cell-based. The following applies: 150 nM, overnight treatment; FIG. 2. As to the method:
Fibers isolated from mouse flexor digitorum brevis muscle were cultured overnight in the presence or absence of compounds AHK1 and AHK2 at a concentration of 150 nM. Baseline intracellular calcium levels were evaluated by means of incubating the fibers with Fura 2-AM ratiometric fluorochrome (4 μM) and pluronic acid (0.02%) for 30 minutes at 37° C., in the culture medium. The fibers were viewed with a high-resolution digital camera and intracellular [Ca^2+] was estimated by means of a 340 nm/380 nm excitation ratio.

Series [8] relates to mdx mice. Nature of the series: Exacerbated defense response (freezing) after acute stress in mdx mice. The class given is in vivo, mouse. The note with it: four-month old mdx mice; five-week treatment, 0.25 mg/mL in drinking water; FIG. 7. The protocol:
To determine the effect of the compounds according to the invention on the heart and CNS, four-month old mice were treated for 5 weeks with compound AHK2 in drinking water at a concentration of 0.25 mg/mL. The four-month old mdx mice show an exacerbated defense response after acute stress which is independent of motor, cardiac and respiratory deficiencies, and is controlled by central mechanisms (FIG. 7). Acute stress was brought about by means of manual immobilizations for 15 seconds in a posture commonly used for performing intraperitoneal injections. After acute stress, the mice are monitored for 1 minute and the % of freezing time or tonic immobility periods of at least 1 second with 90% immobility sensitivity is calculated.

T1 sequence (P21817 whole entry): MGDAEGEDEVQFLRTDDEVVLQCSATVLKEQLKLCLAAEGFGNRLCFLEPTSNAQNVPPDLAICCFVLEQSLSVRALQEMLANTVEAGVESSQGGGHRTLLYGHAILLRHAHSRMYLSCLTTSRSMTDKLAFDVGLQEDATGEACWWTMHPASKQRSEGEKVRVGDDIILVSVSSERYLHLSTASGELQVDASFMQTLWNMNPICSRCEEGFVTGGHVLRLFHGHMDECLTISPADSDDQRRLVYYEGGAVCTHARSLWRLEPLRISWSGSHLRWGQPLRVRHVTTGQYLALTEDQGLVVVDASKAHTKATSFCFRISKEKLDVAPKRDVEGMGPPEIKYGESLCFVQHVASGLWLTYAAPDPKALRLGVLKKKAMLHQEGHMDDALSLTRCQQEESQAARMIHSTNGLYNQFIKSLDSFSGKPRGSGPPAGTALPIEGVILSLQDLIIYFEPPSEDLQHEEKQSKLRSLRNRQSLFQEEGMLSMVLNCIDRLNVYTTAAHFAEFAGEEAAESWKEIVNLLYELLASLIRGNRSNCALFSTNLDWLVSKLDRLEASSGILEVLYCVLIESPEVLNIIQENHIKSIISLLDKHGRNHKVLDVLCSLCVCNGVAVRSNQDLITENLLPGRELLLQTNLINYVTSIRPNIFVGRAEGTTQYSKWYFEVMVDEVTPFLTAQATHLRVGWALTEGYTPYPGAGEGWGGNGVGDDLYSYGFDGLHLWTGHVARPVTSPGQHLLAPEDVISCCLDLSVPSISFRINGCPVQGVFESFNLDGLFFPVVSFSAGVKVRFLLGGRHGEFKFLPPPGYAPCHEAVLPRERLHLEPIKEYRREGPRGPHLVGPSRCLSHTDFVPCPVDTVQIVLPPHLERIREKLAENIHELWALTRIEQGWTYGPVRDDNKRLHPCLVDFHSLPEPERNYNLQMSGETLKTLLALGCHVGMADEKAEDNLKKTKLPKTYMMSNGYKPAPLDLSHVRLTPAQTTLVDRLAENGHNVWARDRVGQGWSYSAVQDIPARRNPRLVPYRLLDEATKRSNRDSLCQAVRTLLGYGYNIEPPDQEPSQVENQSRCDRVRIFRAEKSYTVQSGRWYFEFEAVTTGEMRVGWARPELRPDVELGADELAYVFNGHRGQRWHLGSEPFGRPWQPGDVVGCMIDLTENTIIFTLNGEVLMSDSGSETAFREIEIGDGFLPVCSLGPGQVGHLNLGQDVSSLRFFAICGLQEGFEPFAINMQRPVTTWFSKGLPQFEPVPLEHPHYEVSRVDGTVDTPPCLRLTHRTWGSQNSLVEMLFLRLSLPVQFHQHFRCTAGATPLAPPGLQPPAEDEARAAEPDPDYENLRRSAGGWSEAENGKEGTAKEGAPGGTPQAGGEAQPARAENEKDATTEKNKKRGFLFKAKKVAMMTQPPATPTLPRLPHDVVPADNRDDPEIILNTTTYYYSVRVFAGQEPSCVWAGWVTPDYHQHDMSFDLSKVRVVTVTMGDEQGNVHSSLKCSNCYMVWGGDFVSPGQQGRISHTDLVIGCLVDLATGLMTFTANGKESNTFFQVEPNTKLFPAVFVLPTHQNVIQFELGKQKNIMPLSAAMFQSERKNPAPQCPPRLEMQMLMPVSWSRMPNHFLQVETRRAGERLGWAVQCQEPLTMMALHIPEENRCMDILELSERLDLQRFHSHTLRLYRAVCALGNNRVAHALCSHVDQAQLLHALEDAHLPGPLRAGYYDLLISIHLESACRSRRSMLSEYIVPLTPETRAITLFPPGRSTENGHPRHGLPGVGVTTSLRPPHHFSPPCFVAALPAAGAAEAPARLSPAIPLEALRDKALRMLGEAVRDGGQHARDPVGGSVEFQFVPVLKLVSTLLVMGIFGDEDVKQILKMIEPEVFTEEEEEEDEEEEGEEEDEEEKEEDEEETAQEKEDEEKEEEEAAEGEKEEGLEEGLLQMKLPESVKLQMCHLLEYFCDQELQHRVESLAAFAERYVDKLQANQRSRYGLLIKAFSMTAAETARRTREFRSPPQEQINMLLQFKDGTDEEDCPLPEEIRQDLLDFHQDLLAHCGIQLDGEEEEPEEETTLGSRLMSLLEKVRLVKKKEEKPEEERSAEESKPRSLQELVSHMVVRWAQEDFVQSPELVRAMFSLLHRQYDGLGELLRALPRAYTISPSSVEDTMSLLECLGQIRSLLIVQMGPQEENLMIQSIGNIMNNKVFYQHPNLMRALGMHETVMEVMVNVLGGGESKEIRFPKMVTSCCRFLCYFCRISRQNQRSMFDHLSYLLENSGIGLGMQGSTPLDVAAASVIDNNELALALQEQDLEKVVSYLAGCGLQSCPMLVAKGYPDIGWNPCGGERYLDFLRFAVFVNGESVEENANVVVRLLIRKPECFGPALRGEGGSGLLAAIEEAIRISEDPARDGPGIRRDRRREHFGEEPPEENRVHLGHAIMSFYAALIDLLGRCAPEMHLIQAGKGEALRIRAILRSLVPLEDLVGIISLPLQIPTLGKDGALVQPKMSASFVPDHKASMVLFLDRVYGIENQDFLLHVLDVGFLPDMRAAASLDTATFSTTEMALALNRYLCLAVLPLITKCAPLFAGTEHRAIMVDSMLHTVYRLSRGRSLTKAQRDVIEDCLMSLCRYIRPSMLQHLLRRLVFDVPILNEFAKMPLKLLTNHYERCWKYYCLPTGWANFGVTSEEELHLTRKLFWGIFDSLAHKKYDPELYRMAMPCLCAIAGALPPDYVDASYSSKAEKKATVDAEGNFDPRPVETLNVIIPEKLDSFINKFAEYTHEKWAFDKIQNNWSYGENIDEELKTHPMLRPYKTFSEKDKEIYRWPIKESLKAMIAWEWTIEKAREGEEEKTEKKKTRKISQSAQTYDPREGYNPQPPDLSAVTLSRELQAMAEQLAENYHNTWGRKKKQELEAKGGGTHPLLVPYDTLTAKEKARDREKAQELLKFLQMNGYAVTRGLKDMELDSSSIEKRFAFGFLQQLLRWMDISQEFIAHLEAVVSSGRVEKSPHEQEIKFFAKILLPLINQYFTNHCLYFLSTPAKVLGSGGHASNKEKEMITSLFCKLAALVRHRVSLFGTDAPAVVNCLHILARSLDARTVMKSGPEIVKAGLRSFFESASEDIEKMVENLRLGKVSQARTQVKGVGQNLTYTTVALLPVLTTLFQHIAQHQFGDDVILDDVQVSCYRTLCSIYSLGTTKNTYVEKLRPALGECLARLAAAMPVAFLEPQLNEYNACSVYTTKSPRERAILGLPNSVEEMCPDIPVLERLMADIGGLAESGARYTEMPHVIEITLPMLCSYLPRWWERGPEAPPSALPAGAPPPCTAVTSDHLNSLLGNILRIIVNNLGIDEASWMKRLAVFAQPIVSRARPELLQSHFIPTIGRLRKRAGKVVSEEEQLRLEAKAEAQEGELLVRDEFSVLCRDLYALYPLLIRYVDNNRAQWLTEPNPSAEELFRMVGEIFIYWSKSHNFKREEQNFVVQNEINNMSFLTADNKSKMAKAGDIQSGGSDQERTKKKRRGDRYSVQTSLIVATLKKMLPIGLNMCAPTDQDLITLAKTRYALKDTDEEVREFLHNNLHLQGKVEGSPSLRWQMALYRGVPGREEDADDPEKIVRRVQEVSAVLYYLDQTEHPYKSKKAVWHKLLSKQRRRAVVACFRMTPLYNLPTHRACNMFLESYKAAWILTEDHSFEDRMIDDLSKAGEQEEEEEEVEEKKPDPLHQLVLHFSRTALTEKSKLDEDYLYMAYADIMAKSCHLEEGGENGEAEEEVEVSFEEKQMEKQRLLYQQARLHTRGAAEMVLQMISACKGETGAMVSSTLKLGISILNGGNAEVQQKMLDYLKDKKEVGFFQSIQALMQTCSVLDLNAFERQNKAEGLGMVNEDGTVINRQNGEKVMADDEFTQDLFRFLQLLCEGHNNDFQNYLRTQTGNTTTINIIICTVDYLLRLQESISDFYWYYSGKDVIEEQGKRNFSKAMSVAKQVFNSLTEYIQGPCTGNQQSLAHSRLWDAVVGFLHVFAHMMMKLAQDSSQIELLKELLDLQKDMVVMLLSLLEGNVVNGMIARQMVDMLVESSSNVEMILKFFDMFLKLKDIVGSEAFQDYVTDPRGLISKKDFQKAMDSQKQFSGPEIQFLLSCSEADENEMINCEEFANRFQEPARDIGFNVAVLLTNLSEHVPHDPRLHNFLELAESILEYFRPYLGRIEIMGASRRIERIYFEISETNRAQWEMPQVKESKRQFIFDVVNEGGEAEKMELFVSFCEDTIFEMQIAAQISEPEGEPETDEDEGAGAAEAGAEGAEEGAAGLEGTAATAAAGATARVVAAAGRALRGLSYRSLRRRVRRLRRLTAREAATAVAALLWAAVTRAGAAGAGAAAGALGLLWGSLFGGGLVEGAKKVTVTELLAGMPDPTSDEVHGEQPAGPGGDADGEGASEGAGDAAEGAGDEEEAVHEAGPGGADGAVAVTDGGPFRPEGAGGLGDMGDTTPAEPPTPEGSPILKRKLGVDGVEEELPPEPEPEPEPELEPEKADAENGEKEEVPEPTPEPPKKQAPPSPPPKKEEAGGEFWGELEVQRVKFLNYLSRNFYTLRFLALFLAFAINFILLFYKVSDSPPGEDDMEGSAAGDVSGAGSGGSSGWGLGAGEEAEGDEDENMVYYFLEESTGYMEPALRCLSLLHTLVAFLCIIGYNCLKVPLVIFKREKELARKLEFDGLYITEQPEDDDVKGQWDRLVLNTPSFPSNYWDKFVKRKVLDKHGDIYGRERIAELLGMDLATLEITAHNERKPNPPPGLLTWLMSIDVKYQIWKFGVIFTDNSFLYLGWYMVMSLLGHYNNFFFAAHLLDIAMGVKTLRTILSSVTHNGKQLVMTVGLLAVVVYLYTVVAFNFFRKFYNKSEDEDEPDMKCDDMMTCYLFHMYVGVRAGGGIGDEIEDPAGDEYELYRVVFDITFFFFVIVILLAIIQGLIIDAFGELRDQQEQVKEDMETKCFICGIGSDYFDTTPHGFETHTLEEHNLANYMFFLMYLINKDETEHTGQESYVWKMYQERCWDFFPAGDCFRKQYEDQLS
T1 sequence (P62942 2-108 limits assumed): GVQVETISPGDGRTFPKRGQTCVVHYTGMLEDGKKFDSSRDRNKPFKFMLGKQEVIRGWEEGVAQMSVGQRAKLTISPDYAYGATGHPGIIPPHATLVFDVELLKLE

Consider “4-[3-(4-benzylpiperidinyl)-propanoyl]-2,3,4,5-tetrahydro-1,4-benzothiazepine [JTV-519]”, for which the “adrenaline- and caffeine-induced myocardial necrosis” value in series [1] was “inhibits”.
`COc1ccc(SCc2cn(CCN(C)C)nn2)cc1` [AHK2, 1-[2-(N,N-dimethylamino)ethyl]-4-[4-(methoxy)phenylthiomethyl]-1H-1,2,3-triazole]: the “grip strength compared to untreated littermates” value with mdx mice [2] (after 2 weeks of treatment) was “increased significantly”. Also, the “increase of muscle strength” value in the series with mdx mice [2] (after 5 weeks of treatment, FIG. 4) is 20%. Also, the “percentage of central nuclei” value with mdx mice [3] is listed as “significantly reduced”. Moreover, the “in vitro acute toxicity against human myotubes” value in [4] (concentrations between 10 nM and 2 mM, FIG. 1) is given as “do not show in vitro acute toxicity”. Also, the “dissociation of the RyR1-Calst1 complex in the presence of SIN1” value in series [5] is listed as “partially prevented”. For the same compound, in the series with mdx mice [6], the “cardiomyocyte sarcolemma integrity (Evans Blue uptake)” value was “increases” and the “isoproterenol-induced damage of the myocardium” value is “protects the myocardium from isoproterenol-induced damage”. Besides, in series [7], the “intracellular calcium levels at rest in MDX fibers” value is recorded as “brought intracellular calcium levels back to the control levels”. For the same compound, the “exacerbated defense response-related CNS phenotype (% of freezing time after acute stress)” value in the series on mdx mice [8] is recorded as “significantly improves”.
`COc1ccc(SCc2cn(CC(=O)O)nn2)cc1` [Example 11, 1-carboxymethyl-4-[4-(methoxy)phenylthiomethyl]-1H-1,2,3-triazole] registered a melting point of 163 to 170 °C.
With `COc1cccc(S(=O)(=O)Cc2cn(CC(=O)O)nn2)c1` [Example 22, 1-carboxymethyl-4-[3-(methoxy)phenylsulfonylmethyl]-1H-1,2,3-triazole], the melting point was 106 to 115 °C.
With `O=C(O)Cn1cc(CSc2cccc(Cl)c2)nn1` [Example 23, 1-carboxymethyl-4-[3-(chloro)phenylthiomethyl]-1H-1,2,3-triazole], the melting point is 146 to 148 °C.
`COc1ccc2c(c1)CN(C)CCS2` [Example S-107, reference compound] yielded a cellular toxicity in series [4] (concentration of 1 mM) of 100%.

In general, melting point refers to the temperature, or range, at which the solid turns liquid.
